From the CheMixHub viscosity set

Assay: xn = mol fraction of the nth substance listed

NC=O + CCO
Conditions	viscosity [mPa·s]
293.15 K, 101 kPa, x1 = 0.0698	1.251
298.15 K, 100 kPa, x1 = 0.08099	1.17
298.15 K, 100 kPa, x1 = 0.141	1.24
298.15 K, 100 kPa, x1 = 0.1644	1.27
298.15 K, 100 kPa, x1 = 0.2196	1.37
298.15 K, 100 kPa, x1 = 0.25	1.43
298.15 K, 100 kPa, x1 = 0.2924	1.5
298.15 K, 100 kPa, x1 = 0.3698	1.66
298.15 K, 100 kPa, x1 = 0.4031	1.73
298.15 K, 100 kPa, x1 = 0.4124	1.74
298.15 K, 100 kPa, x1 = 0.5124	1.98
298.15 K, 100 kPa, x1 = 0.5644	2.11
298.15 K, 100 kPa, x1 = 0.6278	2.29
298.15 K, 100 kPa, x1 = 0.7077	2.5
298.15 K, 100 kPa, x1 = 0.7726	2.67
298.15 K, 100 kPa, x1 = 0.8608	2.91
298.15 K, 100 kPa, x1 = 0.9558	3.19
298.15 K, 101 kPa, x1 = 0.0698	1.152
298.15 K, 101 kPa, x1 = 0.1005	1.229
298.15 K, 101 kPa, x1 = 0.1991	1.376
298.15 K, 101 kPa, x1 = 0.3014	1.563
298.15 K, 101 kPa, x1 = 0.4071	1.816
298.15 K, 101 kPa, x1 = 0.4991	2.01
298.15 K, 101 kPa, x1 = 0.6093	2.259
298.15 K, 101 kPa, x1 = 0.7024	2.515
298.15 K, 101 kPa, x1 = 0.8108	2.782
298.15 K, 101 kPa, x1 = 0.9	3.054
303.15 K, 101 kPa, x1 = 0.0698	1.043
303.15 K, 101.3 kPa, x1 = 0.0716	0.97
303.15 K, 101.3 kPa, x1 = 0.1365	1.03
303.15 K, 101.3 kPa, x1 = 0.2357	1.1
303.15 K, 101.3 kPa, x1 = 0.3142	1.3
303.15 K, 101.3 kPa, x1 = 0.3842	1.4
303.15 K, 101.3 kPa, x1 = 0.4597	1.5
303.15 K, 101.3 kPa, x1 = 0.5389	1.6
303.15 K, 101.3 kPa, x1 = 0.609	1.8
303.15 K, 101.3 kPa, x1 = 0.6872	1.9
303.15 K, 101.3 kPa, x1 = 0.7741	2.1
303.15 K, 101.3 kPa, x1 = 0.7928	2.2
303.15 K, 101.3 kPa, x1 = 0.926	2.6
308.15 K, 101 kPa, x1 = 0.0698	0.9456
308.15 K, 101.3 kPa, x1 = 0.0716	0.89
308.15 K, 101.3 kPa, x1 = 0.1365	0.93
308.15 K, 101.3 kPa, x1 = 0.2357	1.05
308.15 K, 101.3 kPa, x1 = 0.3142	1.1
308.15 K, 101.3 kPa, x1 = 0.3842	1.2
308.15 K, 101.3 kPa, x1 = 0.4597	1.3
308.15 K, 101.3 kPa, x1 = 0.5389	1.5
308.15 K, 101.3 kPa, x1 = 0.609	1.5
308.15 K, 101.3 kPa, x1 = 0.6872	1.7
308.15 K, 101.3 kPa, x1 = 0.7741	1.8
308.15 K, 101.3 kPa, x1 = 0.7928	1.9
308.15 K, 101.3 kPa, x1 = 0.926	2.3
313.15 K, 101 kPa, x1 = 0.0698	0.8712
313.15 K, 101 kPa, x1 = 0.1005	0.916
313.15 K, 101 kPa, x1 = 0.1991	1.016
313.15 K, 101 kPa, x1 = 0.3014	1.145
313.15 K, 101 kPa, x1 = 0.4071	1.319
313.15 K, 101 kPa, x1 = 0.4991	1.465
313.15 K, 101 kPa, x1 = 0.6093	1.622
313.15 K, 101 kPa, x1 = 0.7024	1.8
313.15 K, 101 kPa, x1 = 0.8108	1.986
313.15 K, 101 kPa, x1 = 0.9	2.174
313.15 K, 101.3 kPa, x1 = 0.0716	0.8
313.15 K, 101.3 kPa, x1 = 0.1365	0.85
313.15 K, 101.3 kPa, x1 = 0.2357	0.95
313.15 K, 101.3 kPa, x1 = 0.3142	1.04
313.15 K, 101.3 kPa, x1 = 0.3842	1.1
313.15 K, 101.3 kPa, x1 = 0.4597	1.2
313.15 K, 101.3 kPa, x1 = 0.5389	1.3
313.15 K, 101.3 kPa, x1 = 0.609	1.4
313.15 K, 101.3 kPa, x1 = 0.6872	1.5
313.15 K, 101.3 kPa, x1 = 0.7741	1.7
313.15 K, 101.3 kPa, x1 = 0.7928	1.7
313.15 K, 101.3 kPa, x1 = 0.926	2
318.15 K, 101 kPa, x1 = 0.0698	0.8052
318.15 K, 101.3 kPa, x1 = 0.0716	0.73
318.15 K, 101.3 kPa, x1 = 0.1365	0.77
318.15 K, 101.3 kPa, x1 = 0.2357	0.86
318.15 K, 101.3 kPa, x1 = 0.3142	0.94
318.15 K, 101.3 kPa, x1 = 0.3842	1.02
318.15 K, 101.3 kPa, x1 = 0.4597	1.1
318.15 K, 101.3 kPa, x1 = 0.5389	1.2
318.15 K, 101.3 kPa, x1 = 0.609	1.2
318.15 K, 101.3 kPa, x1 = 0.6872	1.3
318.15 K, 101.3 kPa, x1 = 0.7741	1.5
318.15 K, 101.3 kPa, x1 = 0.7928	1.5
318.15 K, 101.3 kPa, x1 = 0.926	1.8
323.15 K, 101.3 kPa, x1 = 0.0716	0.64
323.15 K, 101.3 kPa, x1 = 0.1365	0.68
323.15 K, 101.3 kPa, x1 = 0.2357	0.75
323.15 K, 101.3 kPa, x1 = 0.3142	0.83
323.15 K, 101.3 kPa, x1 = 0.3842	0.89
323.15 K, 101.3 kPa, x1 = 0.4597	0.93
323.15 K, 101.3 kPa, x1 = 0.5389	0.98
323.15 K, 101.3 kPa, x1 = 0.609	1.04
323.15 K, 101.3 kPa, x1 = 0.6872	1.1
323.15 K, 101.3 kPa, x1 = 0.7741	1.2
323.15 K, 101.3 kPa, x1 = 0.7928	1.2
323.15 K, 101.3 kPa, x1 = 0.926	1.5
